In the test the test system is SARS-CoV-2 (D614G). The format is cell-based. As to conditions: 10 µM.

Regarding `CN(C)C(=O)COC(=O)Cc1ccc(OC(=O)c2ccc(NC(=N)N)cc2)cc1` [Camostat, camostat], the “Percentage of infection inhibition” value is on record as 85%.

The record behind these values is article PMC12658903 (RSC Medicinal Chemistry, 2025).
